TGI and GI50 data for 27 molecules are collected here from PubChem BioAssay (NCI).

Common to all, as to test: NCI-60 cell line screen, 48 h
Test [1] has as its system SF-295 CNS.
The subject of test [2] is DU-145 prostate.
Test [3] concerns COLO 205 colon.
The test system of test [4] is RXF 393 renal.
Test [5] relates to OVCAR-4 ovarian.
The subject of test [6] is OVCAR-5 ovarian.
Test [7] relates to LOX IMVI melanoma.
For test [8], the system named is MDA-MB-435.
Test [9] deals with M14 melanoma.
Test [10] concerns NCI-H23 lung.

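Growth conditions: 96-well plates. Treatment: test compound, 48 hours, 5 concentrations. Analysis: linear interpolation between bracketing concentrations; unreached endpoints set to highest concentration. Abbreviation: GI50, concentration required for 50% inhibition of growth. TGI is the concentration that stops growth completely.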

With `COc1cc2cc[n+](C)c(Cc3ccc(Oc4cc(Cc5c6cc(OC)c(OC)cc6cc[n+]5C)ccc4OC)cc3)c2cc1OC`, the TGI in test [1], in [2], in test [3], in test [4], in test [5] and in test [6] was greater than 100 µM throughout. For the same molecule, the TGI in test [7], in test [8], in test [9] and in [10] was greater than 100 µM throughout.

Take `CS(=O)(=O)Nc1ccc(NCc2cnc3ccc4[nH]cccc4c23)cc1`: the TGI in test [1] is greater than 100 µM; in test [2], 71.3 µM; in test [3] it was 36.2 µM; in test [4], 41.9 µM; in test [5], 78.4 µM; in [6], greater than 100 µM. Besides, the TGI in test [7] was greater than 100 µM; in test [8], 32.5 µM; in test [9], 46.4 µM; in test [10], 59.6 µM.

Consider `CC12OC(C(=O)C13CCC3)C1C(=O)c3c(O)ccc(O)c3C(=O)C12` (stereo unspecified), for which the TGI in test [1] is 10.3 µM; in test [2], 19.5 µM; in [3], greater than 100 µM; in [4], 3.3 µM; in [5] it was greater than 100 µM; in [6] it was 4.29 µM. The TGI in [7] was greater than 100 µM; in [8] it was 5.81 µM; in test [9] it was 2.04 µM; in test [10], 2.15 µM. For the same molecule, the GI50 in test [2] is 5.01 µM; in test [3], 3.14 µM; in test [4], 1.41 µM; in test [5], 4.06 µM; in test [6], 2.14 µM; in test [7] it was 2.33 µM. Moreover, the GI50 is 2.3 µM in [8], 0.669 µM in test [9] and 0.577 µM in test [10].

With `O=C(NN1CCCCC1)c1cc2cc(CCl)ccc2oc1=O`, the TGI in test [1] was 42 µM; in test [2], greater than 100 µM; in test [3], 36 µM; in [4], 34.4 µM; in test [5], 36.4 µM; in [6], 31.8 µM. Also, the TGI is 35.9 µM in [7], 42.1 µM in test [8], 49.4 µM in test [9] and 32.5 µM in [10].

Regarding `CC(C)C(=O)CC(c1ccc(Br)cc1)N1N=C(C(C)C)CC1c1ccc(Br)cc1` (stereo unspecified), the TGI in test [3], in test [4], in test [5], in test [6], in [7] and in test [9] was greater than 100 µM in each case. Moreover, the TGI in test [10] was greater than 100 µM.

On to `CC(C)(C)COS(=O)OCC(C)(C)C`, for which the TGI in [1], in [2], in [3], in test [4], in [5] and in [6] was greater than 100 µM throughout. Further, the TGI in test [7], in test [8], in [9] and in test [10] was greater than 100 µM throughout.

In the case of `Fc1c(F)c(F)c(CSc2nc3ccccc3[nH]2)c(F)c1F`, the TGI in test [1], in test [2], in [3], in test [4], in test [5] and in test [6] was greater than 100 µM throughout. The TGI in [7], in test [8], in [9] and in test [10] was greater than 100 µM throughout.

On to `COc1cc(S(=O)(=O)Nc2ccc(-c3csc(/N=C\c4cccc(Oc5ccccc5)c4)n3)cc2)ccc1Cl`, for which the TGI in test [1] is greater than 100 µM; in [2], 61.7 µM; in [3] it was greater than 100 µM; in [4], 49.4 µM; in test [5] it was greater than 100 µM; in [6] it was greater than 100 µM. The TGI in [7] was 39 µM; in test [8] it was greater than 100 µM; in test [9], greater than 100 µM; in test [10] it was greater than 100 µM.

Take `CC(CCCCNC(=O)OC(C)(C)C)NC(=O)NC(C)CCCCNC(=O)OC(C)(C)C` (stereo unspecified): the TGI in test [1], in test [2], in test [3], in test [4], in [5] and in [6] was greater than 100 µM throughout. Besides, the TGI in [7], in test [8], in test [9] and in test [10] was greater than 100 µM throughout.

On to `C=C(CN(C)C)C(=O)c1ccccc1Cl`, for which the TGI is greater than 100 µM in test [1]; greater than 100 µM in test [2]; 29.3 µM in [3]; 29.6 µM in [4]; 40.8 µM in test [5]; greater than 60.4 µM in test [6]. The TGI worked out at 33.4 µM in test [7], 33.3 µM in [9] and 54.6 µM in [10].

`CCC1=C(CC2NCCc3cc(OC)c(OC)cc32)CC2c3ccccc3CCN2C1` (stereo unspecified): the TGI in test [1] was 76.3 µM; in test [2] it was greater than 100 µM; in test [3] it was 21.8 µM; in [4], greater than 100 µM; in test [5], greater than 100 µM; in [6] it was greater than 100 µM. The TGI in [7] amounted to 26.3 µM; in test [8], 25.8 µM; in test [9], 27.3 µM.

For `OC1CCSc2ccccc21` (stereo unspecified), the TGI in test [3], in test [4], in [5], in test [6], in test [7] and in [9] was greater than 100 µM in each case. In test [10], this molecule yielded a TGI greater than 100 µM.

As to `Cc1c2ccccc2cc2cccc[n+]12`, the TGI in test [1], in test [2], in test [3], in test [4], in test [6] and in test [7] was greater than 100 µM each time. In addition, the TGI in test [8] is greater than 100 µM; in [10], 65.5 µM.

Take `CCCCSCCC(N)P(=O)(O)O` (stereo unspecified): the TGI in test [1], in test [2], in test [3], in [5], in test [6] and in test [7] was greater than 100 µM throughout. Also, the TGI in [8], in [9] and in test [10] was greater than 100 µM throughout.

As for `CN(CCCNC(=O)c1nn(-c2ccccc2)c2c1Cc1ccccc1-2)CCCNC(=O)c1nn(-c2ccccc2)c2c1Cc1ccccc1-2`, the TGI in test [2] worked out at 3.21 µM; in test [3], 2.8 µM; in [5], 1.85 µM; in test [6], 3.26 µM; in test [8] it was 2.87 µM; in [9], 2.61 µM. Also, in test [10], the TGI worked out at 3.03 µM.

Regarding `Oc1ccc(Cl)cc1C1=Nn2c(COc3ccc4c(c3)CCCC4)nnc2SC1`, the TGI in test [1] came out at 29.7 µM; in [2], 40 µM; in test [3], 31.3 µM; in [4], 32.9 µM; in test [5], 13.8 µM; in test [6], 34.6 µM. Further, the TGI in test [7] turned out to be 29.3 µM; in [8] it was 36.1 µM; in test [9], 29.5 µM; in test [10], 26.9 µM.

Regarding `Nc1csc(-c2scc3c2OCCO3)c1N`, the TGI in [1] was 38.3 µM; in [2], 53.8 µM; in test [3] it was 91.4 µM; in test [4] it was 56.1 µM; in test [5], greater than 100 µM; in [6], 39.9 µM. The TGI in test [7] was 30.9 µM; in test [8], 36.1 µM; in test [9], 35.2 µM; in test [10], 35.6 µM.

On to `CN(CCN1C(=O)c2cccc3cccc(c23)C1=O)CCN1C(=O)c2cccc3cccc(c23)C1=O`, for which the TGI in test [1] is 29 µM; in test [2] it was greater than 100 µM; in [3] it was 16.5 µM; in [4] it was 76.9 µM; in test [5] it was greater than 100 µM; in test [6], greater than 100 µM. In addition, the TGI in [7] is greater than 100 µM; in test [8] it was greater than 100 µM; in test [9], greater than 100 µM; in test [10], 43.7 µM.

On to `Clc1cccc(/C=c2\nc(-c3ccccc3)n3c2nc2ccccc23)c1`, for which the TGI in test [1], in [2], in [3], in [4], in test [5] and in test [6] was greater than 100 µM throughout. The TGI in test [7], in test [8], in test [9] and in test [10] was greater than 100 µM in each case.

Regarding `O=C1/C(=C/c2ccc([N+](=O)[O-])cc2)Sc2scc(-c3cccc([N+](=O)[O-])c3)[n+]21`, the TGI in test [1] turned out to be 29.3 µM; in test [2], 23.7 µM; in test [3] it was 3.69 µM; in [4] it was 7.94 µM; in test [5], 31.4 µM; in [6] it was 24.8 µM. Besides, the TGI was found to be 8.03 µM in test [7], 18.4 µM in test [8], 17.5 µM in test [9] and 42 µM in test [10].

`CS(=O)(=O)Nc1cccc(-c2ccc3ncnc(Nc4cncc(Cl)c4)c3c2)c1`: the GI50 in [2] is 1.16 µM; in test [4] it was 1.43 µM; in test [5], 4.16 µM; in test [6], 2.05 µM; in test [8], 3.2 µM; in test [10] it was 2.51 µM. Besides, the TGI in [2] was greater than 100 µM; in test [4], 4.41 µM; in test [5], greater than 100 µM; in test [6], greater than 100 µM; in test [8] it was greater than 100 µM; in [10], 16.9 µM.

Regarding `COc1ccc2c3c([nH]c2c1)[C@H](C=C(C)C)N1C(=O)[C@@H]2CCCN2C(=O)[C@@H]1C3`, the TGI in test [1], in test [2], in [3], in test [4], in test [5] and in test [6] was greater than 100 µM each time. Further, the TGI in [7], in test [8], in test [9] and in test [10] was greater than 100 µM in each case.

On to `CCOC(=O)c1cccc(N=Nc2ncc(/C=C/C(=O)OC)[nH]2)c1`, for which the TGI in [1] is 63.2 µM; in test [2], greater than 100 µM; in [3], 49 µM; in test [4], greater than 100 µM; in test [5] it was greater than 100 µM; in [6], greater than 100 µM. In addition, the TGI was 51 µM in [7], greater than 100 µM in test [8], 76 µM in test [9] and greater than 100 µM in test [10].

In the case of `Cc1ccc(S(=O)(=O)Nc2cc(=O)[nH]c3c2CCC3)cc1`, the TGI in test [1], in test [2], in test [3], in test [4], in test [5] and in test [6] was greater than 100 µM throughout. Also, the TGI in test [7], in test [8], in [9] and in [10] was greater than 100 µM each time.

As for `O=C1CNc2cc(N3CCCCC3)ccc2N1`, the TGI in [1], in [2], in [5], in test [6], in test [8] and in test [9] was greater than 100 µM each time. The molecule also displayed a TGI in test [10] greater than 100 µM.

`O=S(C(c1ccccc1)=P(c1ccccc1)(c1ccccc1)c1ccccc1)c1ccc(Cl)cc1` (stereo unspecified): the TGI in test [1] was greater than 100 µM; in [2], 42.7 µM; in test [4] it was 95.1 µM; in test [5], 98.3 µM; in test [6], greater than 100 µM; in test [7], greater than 100 µM. Also, the TGI in test [8] was 40.6 µM; in [9], greater than 100 µM; in test [10], greater than 100 µM.

Consider `NC(N)=N/N=C/c1c(-c2cccs2)nc2n1CCS2`, for which the GI50 in test [1] is 14 µM; in [3] it was 18.1 µM; in [4], 77.7 µM; in test [8] it was 16.7 µM. In addition, the TGI in test [1] is 30.6 µM; in [3], 40.4 µM; in test [4], greater than 100 µM; in [8], 30.7 µM.
